Experimental data: paper PMC12058161, “The plant matrix of Artemisia annua L. for the treatment of malaria: Pharmacodynamic and pharmacokinetic studies” (PLOS One, 2025)
“And” between values parts separate entries of the source, which are not always exact repeats. Equal entries are not always repeated.

What was measured:
Caco-2 cells = experiment: Cytotoxicity in Caco-2 cells, CCK-8 assay; assay type: cell-based, human; conditions: for Cell survival rate%: mean; for cck-8 mean (survival fraction): mean of 6
Procedure: Caco-2 cells were cultured in 96-well plates for 48 h at a seeding density of 5.0 × 10^3 cells/well before the addition of drugs. […] The final concentration of DMSO was 0.05% (v/v). Experiments were initiated by replacing the culture medium in each well with 100 μL of sample solutions at 37°C in the CO2 incubator. After 48 h of incubation, the medium was removed and 10 μL of CCK-8 reagent in the serum-free medium was added to each well. The plates were then incubated at 37°C for another 2 h. At the end of the incubation period, the plates were quantified by reading the absorbance at 450 nm on a micro-plate multi-detection instrument, SpectraMax iD3 with SoftMax® Pro (Molecular Devices Corporation Sunnyvale, CA, USA). The percentage of cell viability was calculated based on the absorbance measured relative to the absorbance of cells exposed to the negative control.

P-glycoprotein (P-gp) = biological target: T1, P-glycoprotein (P-gp) (Homo sapiens, UniProt P08183); experiment: Rhodamine 123 (P-gp substrate) transport across drug-treated Caco-2 cell monolayers; assay type: cell-based; conditions: co-incubated with R123, 10 μM, Caco-2 monolayer, Fig 6
T1 construct: The transport of R123 in normal Caco-2 cell monolayers or drug-treated Caco-2 cell monolayers was further studied; host or cells: Caco-2
T1 sequence (P08183 whole entry): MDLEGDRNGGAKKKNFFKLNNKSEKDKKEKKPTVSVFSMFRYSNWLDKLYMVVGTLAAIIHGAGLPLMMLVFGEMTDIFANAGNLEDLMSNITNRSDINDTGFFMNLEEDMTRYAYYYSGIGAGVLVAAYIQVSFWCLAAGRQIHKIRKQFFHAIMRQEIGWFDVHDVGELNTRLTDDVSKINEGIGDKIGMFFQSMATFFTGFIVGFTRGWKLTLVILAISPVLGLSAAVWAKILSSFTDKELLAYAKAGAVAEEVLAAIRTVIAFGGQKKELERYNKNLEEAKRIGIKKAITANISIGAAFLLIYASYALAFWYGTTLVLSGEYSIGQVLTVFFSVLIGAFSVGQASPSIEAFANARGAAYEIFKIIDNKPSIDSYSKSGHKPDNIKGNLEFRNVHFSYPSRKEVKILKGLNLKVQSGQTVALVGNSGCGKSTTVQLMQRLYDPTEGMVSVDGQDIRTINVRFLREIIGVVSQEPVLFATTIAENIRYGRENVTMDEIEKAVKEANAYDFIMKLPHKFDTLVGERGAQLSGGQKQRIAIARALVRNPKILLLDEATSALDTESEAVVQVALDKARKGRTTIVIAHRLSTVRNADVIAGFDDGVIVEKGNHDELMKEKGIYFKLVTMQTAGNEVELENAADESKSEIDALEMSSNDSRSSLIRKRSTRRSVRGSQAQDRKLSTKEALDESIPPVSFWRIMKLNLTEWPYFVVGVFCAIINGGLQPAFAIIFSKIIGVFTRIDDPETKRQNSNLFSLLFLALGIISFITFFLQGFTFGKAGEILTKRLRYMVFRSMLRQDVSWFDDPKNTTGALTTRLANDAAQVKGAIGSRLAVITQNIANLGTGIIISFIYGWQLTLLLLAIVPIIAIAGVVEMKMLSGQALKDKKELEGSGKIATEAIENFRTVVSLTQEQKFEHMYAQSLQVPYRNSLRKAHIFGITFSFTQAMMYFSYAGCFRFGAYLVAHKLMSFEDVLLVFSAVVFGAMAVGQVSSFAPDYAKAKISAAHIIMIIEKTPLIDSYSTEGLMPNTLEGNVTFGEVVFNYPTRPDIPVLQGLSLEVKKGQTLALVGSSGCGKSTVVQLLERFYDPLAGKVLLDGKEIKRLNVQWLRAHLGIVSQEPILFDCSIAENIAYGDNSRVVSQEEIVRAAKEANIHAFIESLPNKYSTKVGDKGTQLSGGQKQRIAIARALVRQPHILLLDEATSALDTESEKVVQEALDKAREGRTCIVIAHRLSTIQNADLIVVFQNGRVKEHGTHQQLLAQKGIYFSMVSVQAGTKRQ
Text: The human epithelial cell line Caco-2 serves as a widely recognized model for the intestinal epithelial barrier, frequently utilized in the assessment of drug absorption and transport mechanisms. In this study, we evaluated drug absorption and distribution in vitro with the help of the Caco-2 cell model. Caco-2 cells were purchased from the Chinese Academy of Medical Sciences (Beijing, China, Resource No. 3111C0001CCC000100). The cells were resuscitated and inserted into culture flasks. Caco-2 cells were passaged with DMEM high glucose medium containing 10% (V/V) FBS, 1% (V/V) non-essential amino acid solution and 100 U/mL penicillin-streptomycin double antibiotic solution, and cultured at 37°C in a 5% CO2 incubator. […] The integrity of the cell monolayer was checked by measuring the transmembrane electrical resistance (TEER) of the monolayer cells with a Millicell-ERS electrode (Millipore Corp., Billerica, MA, USA). Caco-2 cells were used for transport experiments 17–21 days after inoculation. Besides, only monolayers with TEER values above 400 Ω/cm^2 were used in the study.
The transport of R123 in normal Caco-2 cell monolayers or drug-treated Caco-2 cell monolayers was further studied. […] The transport buffer containing 5 μM of R123 was added on either the AP or the BL side of the inserts, as described above. […] The concentrations of R123 were immediately analyzed by SpectraMax iD3. The excitation wavelength was set at 485 nm, and the emission wavelength at 535 nm. Papp values across the cell monolayers were calculated according to the equation: Papp = dQ/dt × 1/(A × C0), where dQ/dt represents the rate of drug transport. […] The efflux ratio was calculated using the Papp (BL-AP) to Papp (AP-BL) ratio.

[1] = Stability of the five compounds in SD rat plasma (QC samples, UHPLC-ESI-MS/MS); assay type: in vitro ADME; conditions: for stability, Accuracy (measured versus nominal concentration) / stability, mean ± SD (measured concentration): SD rat plasma, n=5
Procedure: The method was validated according to the US Food and Drug Administration (FDA) Bioanalytical Method Validation Guidance as follows: [1] specificity was assessed by analyzing blank plasma, blank plasma spiked with standard solutions and rat plasma samples after oral administration. Each calibration curve was plotted using the concentration of the standard solution as the horizontal coordinate and the ratio of analyte to internal standard peak area as the vertical coordinate. The lower limit of quantification (LLOQ) refers to the lowest concentration, which is typically 10 times the signal-to-noise ratio. It has an acceptable accuracy of ± 20% and a precision of less than 20% [3]. Quality Control (QC) samples (low, medium and high concentrations) were prepared for each analyte. Five samples were analyzed at each concentration level and three consecutive batches were determined to calculate the accuracy and precision of the method. Extraction recovery was assessed by the ratio of the average peak area of routinely prepared QC samples (low, medium, and high concentrations) to the post-extraction plasma sample. Likewise, matrix effect was assessed by the ratio of peak areas between post-extraction samples spiked with analytes and mobile phases spiked with the same concentration of analytes.

[2] = male, Sprague Dawley, rat, in vivo
in vivo = conditions: male, Sprague Dawley, rat, po, 352 mg/kg
CYP3A4 = conditions: read-out: IC50 of CYP3A4 inhibition; cited from earlier work
[3] = Caco-2, concentration 10 μmol/L
[4] = Caco-2, concentration 20 μmol/L
[5] = Caco-2, concentration 40 μmol/L
[6] = Caco-2, concentration 80 μmol/L
[7] = nominal 160 ng/mL, 3 freeze-thaw cycles
[8] = nominal 160 ng/mL, 7 days at -80°C
[9] = nominal 160 ng/mL, Room temperature 24h
[10] = nominal 1000 ng/mL, 3 freeze-thaw cycles
[11] = nominal 1000 ng/mL, 7 days at -80°C
[12] = nominal 1000 ng/mL, Room temperature 24h
[13] = nominal 5000 ng/mL, 3 freeze-thaw cycles
[14] = nominal 5000 ng/mL, 7 days at -80°C
[15] = nominal 5000 ng/mL, Room temperature 24h

## CC1=C[C@H]2[C@@H](CC1)[C@H](C)CC[C@H]2[C@@H](C)C(=O)O [DHAA, Dihydroartemisinic acid]
Caco-2 cells; Caco-2, 5μmol/L
  Cell survival rate%, single replicate: 84.02% and 84.22% and 87.64% and 85.87% and 89.84% and 87.8%
Caco-2 cells; Caco-2, 10μmol/L
  Cell survival rate%, single replicate: 84.68% and 88.84% and 86.58% and 89.08% and 86.49% and 80.21%
Caco-2 cells; Caco-2, 20μmol/L
  Cell survival rate%, single replicate: 84.63% and 81.53% and 85.05% and 89.44% and 83.52% and 78.29%
Caco-2 cells; Caco-2, 40μmol/L
  Cell survival rate%, single replicate: 84.99% and 84.53% and 82.56% and 83.98% and 80.6% and 81.3%
Caco-2 cells; Caco-2, 80μmol/L
  Cell survival rate%, single replicate: 80.04% and 80.37% and 80.83% and 80.86% and 80.51% and 80.11%
Caco-2 cells; Caco-2, concentration 5 μmol/L
  cck-8 cell survival as fraction, single replicate: 0.8402 and 0.8422 and 0.8764 and 0.8587 and 0.8984 and 0.878
  Cell survival rate%: 86.56%
  cck-8 mean (survival fraction): 0.87
Caco-2 cells; [3]
  cck-8 cell survival as fraction, single replicate: 0.8468 and 0.8884 and 0.8658 and 0.8908 and 0.8649 and 0.8021
  Cell survival rate%: 85.98%
  cck-8 mean (survival fraction): 0.86
Caco-2 cells; [4]
  cck-8 cell survival as fraction, single replicate: 0.8463 and 0.8153 and 0.8505 and 0.8944 and 0.8352 and 0.7829
  Cell survival rate%: 83.74%
  cck-8 mean (survival fraction): 0.84
Caco-2 cells; [5]
  cck-8 cell survival as fraction, single replicate: 0.8499 and 0.8453 and 0.8256 and 0.8398 and 0.806 and 0.813
  Cell survival rate%: 82.99%
  cck-8 mean (survival fraction): 0.83
Caco-2 cells; [6]
  cck-8 cell survival as fraction, single replicate: 0.8004 and 0.8037 and 0.8083 and 0.8086 and 0.8051 and 0.8011
  Cell survival rate%: 80.45%
  cck-8 mean (survival fraction): 0.80
P-glycoprotein (P-gp)
  reduction of R123 transport from the BL side to the AP side: 45.21%
[1]; QC sample 160 ng/mL, 3 freeze-thaw cycles
  Stability, measured concentration, mean ± SD: 161 ± 10.8 ng/mL and 160.872 ng/mL
[1]; QC sample 160 ng/mL, 7 days at -80°C
  Stability, measured concentration, mean ± SD: 149 ± 5.80 ng/mL and 149.16 ng/mL
[1]; QC sample 160 ng/mL, Room temperature 24h
  Stability, measured concentration, mean ± SD: 151 ± 5.81 ng/mL and 151.046 ng/mL
[1]; QC sample 1000 ng/mL, 3 freeze-thaw cycles
  Stability, measured concentration, mean ± SD: 914 ± 35.7 ng/mL and 914.334 ng/mL
[1]; QC sample 1000 ng/mL, 7 days at -80°C
  Stability, measured concentration, mean ± SD: 1064 ± 21.4 ng/mL and 1063.64 ng/mL
[1]; QC sample 1000 ng/mL, Room temperature 24h
  Stability, measured concentration, mean ± SD: 959.663 ng/mL and 960 ± 45.4 ng/mL
[1]; QC sample 5000 ng/mL, 3 freeze-thaw cycles
  Stability, measured concentration, mean ± SD: 4813 ± 108 ng/mL and 4813.44 ng/mL
[1]; QC sample 5000 ng/mL, 7 days at -80°C
  Stability, measured concentration, mean ± SD: 4814 ± 118 ng/mL and 4813.94 ng/mL
[1]; QC sample 5000 ng/mL, Room temperature 24h
  Stability, measured concentration, mean ± SD: 5079.03 ng/mL and 5079 ± 336 ng/mL
[1]; [7]
  stability, Accuracy (measured versus nominal concentration): 100.54%
  stability, mean ± SD (measured concentration): 161 ± 10.8 ng/mL
[1]; [8]
  stability, Accuracy (measured versus nominal concentration): 93.23%
  stability, mean ± SD (measured concentration): 149 ± 5.80 ng/mL
[1]; [9]
  stability, Accuracy (measured versus nominal concentration): 94.40%
  stability, mean ± SD (measured concentration): 151 ± 5.81 ng/mL
[1]; [10]
  stability, Accuracy (measured versus nominal concentration): 91.43%
  stability, mean ± SD (measured concentration): 914 ± 35.7 ng/mL
[1]; [11]
  stability, Accuracy (measured versus nominal concentration): 106.36%
  stability, mean ± SD (measured concentration): 1064 ± 21.4 ng/mL
[1]; [12]
  stability, Accuracy (measured versus nominal concentration): 95.97%
  stability, mean ± SD (measured concentration): 960 ± 45.4 ng/mL
[1]; [13]
  stability, Accuracy (measured versus nominal concentration): 96.27%
  stability, mean ± SD (measured concentration): 4813 ± 108 ng/mL
[1]; [14]
  stability, Accuracy (measured versus nominal concentration): 96.28%
  stability, mean ± SD (measured concentration): 4814 ± 118 ng/mL
[1]; [15]
  stability, Accuracy (measured versus nominal concentration): 101.58%
  stability, mean ± SD (measured concentration): 5079 ± 336 ng/mL
[2]
  CLz: 24 mL/day/kg
[2]; po, 352 mg/kg
  CL: 0.001 ± 0.001 L/h
  Vz: 0.005 ± 0.001 L
In vivo
  AUC(0-inf): 29700 ± 6700 ng·h/mL
  AUC(0-t): 28700 ± 6660 ng·h/mL
In vivo; Cmax
  Cmax: 10400 ± 2440 ng/mL
In vivo; MRT(0-∞)
  MRT inf: 6.08 ± 1.27 h
In vivo; t1/2
  half-life: 278 ± 71 min
In vivo; t1/2z
  half-life: 238 min

## C=C1C(=O)O[C@@]23[C@H]1CC[C@@H](C)[C@@H]2CC[C@@]1(C)O[C@@H]31 [arteannuin B]
CYP3A4
  IC50: 1200 nM
